Laboratory results reported in patent US11000485B2, “Substituted hydroxystilbenes as AhR and Nrf2 modulators and their therapeutic applications” (Resolvex Pharmaceuticals Inc., priority 2017, dated 2021).

Key:
[1] = system: dextran sodium sulphate (DSS) induced model of inflammatory bowel disease (IBD)/colitis; test: DSS induced model of IBD/colitis; assay type: in vivo, female Balb/c mice; conditions: Day 0 to Day 8, DSS control group 24.2+5.7, normal control 1.9+2.4
Protocol: The efficacy of Compound 2 was tested in a dextran sodium sulphate (DSS) induced model of inflammatory bowel disease (IBD)/colitis in female Balb/c mice. Rolipram was used as a positive control in this experiment. Colitis was induced in the mice by providing drinking water containing DSS (3.5%, M. Wt. 30,000-50,000) from Day 0 to Day 8. The test compounds were administered as per their respective groups at specific dose levels starting from Day 0 through to Day 8. […] For dosing, Compound 2 was dissolved in vehicle (1.5% Cremophor EL) at 3 mg/mL and 1 mg/mL for the 30 and 10 mg/kg doses, respectively. […] All doses were administered by oral gavage.
There was a considerable increase in disease activity index (DAI) (cumulative scores of body weight, stool consistency and rectal bleeding) in the DSS control group (24.2+5.7) when compared to normal control group (1.9+2.4) which indicated very good disease induction.

[2] = molecular target: T1, Aryl Hydrocarbon Receptor (AhR) (Homo sapiens, UniProt P35869); test: AhR-CYP1A1-bla LS-180 beta-lactamase reporter assay; assay type: cell-based; conditions: AhR-CYP1A1-bla LS-180 cells, 24 hours; read-out: EC50, AhR activation
T1 construct: host or cells: AhR-CYP1A1-bla LS-180
Protocol: This assay was performed using Invitrogen's CellSensor® cell line AhR-CYP1A1-bla LS-180 with GeneBLAzer® Beta-lactamase (bla) Reporter Technology as the detection method. When the AhR-CYP1A1 pathway is activated or inhibited, Beta-lactamase reporter activity is modulated and is measured quantitatively and selectively with the LiveBLAzer™-FRET B/G Loading Substrate.
Briefly, the AhR-CYP1A1-bla LS-180 cells were grown in Growth Media (MEM, 10% FBS, 0.1 mM NEAA, 1 mM Sodium Pyruvate). Cells were dissociated and resuspended in Assay Media (OPTI-MEM, 0.5% dialyzed FBS, 0.1 mM NEAA, 1 mM Sodium Pyruvate). Around 2×10^4 cells in a volume of 32 μL of assay media was added to each well of a 384 well Poly-D-Lysine assay plate. After incubation for 16 hours at 37° C. in a humidified incubator, 4 μL of a 10× serial dilution of test compounds were added to appropriate wells of the plate. The plate was incubated for 24 hours at 37° C. For the reporter activity assay, 8 μL of 1 μM Substrate was added to each well and the plate was incubated for 2 hours at room temperature. The plate was read on a fluorescence plate reader.

AMPK (A1/B1/G1) = AMPK (A1/B1/G1) (Homo sapiens, UniProt Q13131); test: Kinase profiling, recombinant kinase; assay type: biochemical; conditions: 5 uM ATP
ICAM-1 = test: BioMap BF4T lung epithelium inflammation system; assay type: cell-based; conditions: stimulated human primary bronchial epithelial cells, 24 hours, ELISA
Protocol: (§1) The compounds were assayed in the Eurofin's BioMap system (BF4T Cells) which models Th2-type lung inflammation, an environment that promotes the recruitment of eosinophils, mast cells, neutrophils, and basophils as well as effector memory T cells. This system is relevant for allergy and asthma, pulmonary fibrosis, as well as chronic obstructive pulmonary disorder (COPD) exacerbations. The human primary bronchial epithelial cells were cultured and stimulated to induce the inflammatory factors responsible for the pathogenesis of various inflammatory diseases in the lung. The test compounds were added to the in vitro model culture system and incubated for 24 hours. The supernatants were collected and assayed for the protein production of various molecules using ELISA assays. The biomarkers assayed included MCP-1, Eotaxin-3, VCAM-1, ICAM-1, CD90, IL-8, IL1α, Keratin 8/18, MMP1, MMP-3, MMP-9, PAI-1, SRB, tPA, and uPA.

VCAM-1 = test: BioMap BF4T lung epithelium inflammation system; assay type: cell-based; conditions: stimulated human primary bronchial epithelial cells, 24 hours, ELISA
Protocol: as §1

IL-1α = test: BioMap BF4T lung epithelium inflammation system; assay type: cell-based; conditions: stimulated human primary bronchial epithelial cells, 24 hours, ELISA
Protocol: as §1

IL-8 = test: BioMap BF4T lung epithelium inflammation system; assay type: cell-based; conditions: stimulated human primary bronchial epithelial cells, 24 hours, ELISA
Protocol: as §1

AMPK (A1/B1/G1), sequence (Q13131 whole entry): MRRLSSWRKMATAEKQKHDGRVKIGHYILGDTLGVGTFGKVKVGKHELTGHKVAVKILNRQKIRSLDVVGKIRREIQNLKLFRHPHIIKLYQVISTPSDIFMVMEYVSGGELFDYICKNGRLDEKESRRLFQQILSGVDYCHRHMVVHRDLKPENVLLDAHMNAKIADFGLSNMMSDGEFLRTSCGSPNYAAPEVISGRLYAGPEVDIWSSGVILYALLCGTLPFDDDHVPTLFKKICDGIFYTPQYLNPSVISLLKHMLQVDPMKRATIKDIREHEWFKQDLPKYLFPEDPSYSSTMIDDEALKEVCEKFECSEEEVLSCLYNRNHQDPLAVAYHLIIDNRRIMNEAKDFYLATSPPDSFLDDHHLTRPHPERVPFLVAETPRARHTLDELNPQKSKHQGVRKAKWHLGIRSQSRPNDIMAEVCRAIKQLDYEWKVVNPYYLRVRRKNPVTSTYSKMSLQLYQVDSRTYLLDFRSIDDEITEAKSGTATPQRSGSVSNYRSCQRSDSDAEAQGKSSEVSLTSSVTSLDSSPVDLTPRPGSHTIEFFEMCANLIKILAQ
AMPK (A1/B1/G1), sequence (Q9Y478 whole entry partner): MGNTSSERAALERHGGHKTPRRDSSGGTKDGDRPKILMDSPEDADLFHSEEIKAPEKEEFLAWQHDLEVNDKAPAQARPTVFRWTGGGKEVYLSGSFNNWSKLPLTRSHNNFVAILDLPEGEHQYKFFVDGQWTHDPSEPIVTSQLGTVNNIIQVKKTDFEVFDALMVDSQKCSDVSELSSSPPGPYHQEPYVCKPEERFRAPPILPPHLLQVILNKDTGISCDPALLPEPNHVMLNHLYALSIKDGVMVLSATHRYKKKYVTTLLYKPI
AMPK (A1/B1/G1), sequence (P54619 whole entry partner): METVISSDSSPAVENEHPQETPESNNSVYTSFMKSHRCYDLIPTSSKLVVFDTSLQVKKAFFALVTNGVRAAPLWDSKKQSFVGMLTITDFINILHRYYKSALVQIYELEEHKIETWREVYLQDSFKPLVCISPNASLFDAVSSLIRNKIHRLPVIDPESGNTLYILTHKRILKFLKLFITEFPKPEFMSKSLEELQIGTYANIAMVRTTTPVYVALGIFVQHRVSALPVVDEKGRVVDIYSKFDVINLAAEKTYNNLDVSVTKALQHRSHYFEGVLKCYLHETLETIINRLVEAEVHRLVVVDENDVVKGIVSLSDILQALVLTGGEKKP
T1 sequence (P35869 11-848): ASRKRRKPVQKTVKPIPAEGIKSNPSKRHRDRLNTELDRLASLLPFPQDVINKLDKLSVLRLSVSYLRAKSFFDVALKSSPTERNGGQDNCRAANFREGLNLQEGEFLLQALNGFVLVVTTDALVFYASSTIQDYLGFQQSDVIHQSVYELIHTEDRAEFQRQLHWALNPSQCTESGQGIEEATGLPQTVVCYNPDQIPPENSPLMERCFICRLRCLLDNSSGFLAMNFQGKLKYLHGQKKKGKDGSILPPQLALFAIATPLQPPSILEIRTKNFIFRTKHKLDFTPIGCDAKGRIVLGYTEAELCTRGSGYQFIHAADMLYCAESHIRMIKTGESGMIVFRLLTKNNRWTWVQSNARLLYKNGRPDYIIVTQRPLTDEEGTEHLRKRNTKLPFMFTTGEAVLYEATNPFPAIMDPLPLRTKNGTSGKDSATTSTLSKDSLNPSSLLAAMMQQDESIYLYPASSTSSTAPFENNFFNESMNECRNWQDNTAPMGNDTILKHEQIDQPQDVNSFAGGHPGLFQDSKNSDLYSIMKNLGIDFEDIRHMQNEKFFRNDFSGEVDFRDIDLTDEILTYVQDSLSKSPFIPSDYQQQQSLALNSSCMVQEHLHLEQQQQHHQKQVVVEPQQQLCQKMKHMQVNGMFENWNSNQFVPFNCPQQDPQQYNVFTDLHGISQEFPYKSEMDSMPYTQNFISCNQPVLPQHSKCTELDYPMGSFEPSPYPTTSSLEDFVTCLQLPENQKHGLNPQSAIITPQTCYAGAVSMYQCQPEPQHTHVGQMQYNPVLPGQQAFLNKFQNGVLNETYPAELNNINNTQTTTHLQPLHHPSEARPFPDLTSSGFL

## CC(C)c1ccc(/C=C/c2ccc(F)cc2)cc1O [Compound 2, 3-hydroxy-4-isopropyl-4′-fluoro-(E)-stilbene]
[1]; 10 mg/kg oral gavage
  disease activity index (DAI) (cumulative scores of body weight, stool consistency and rectal bleeding): 17.4+12.0
[1]; 30 mg/kg oral gavage
  disease activity index (DAI) (cumulative scores of body weight, stool consistency and rectal bleeding): 15.4+4.9
[2]
  EC50: 27 nM
AMPK (A1/B1/G1); 5 μM compound
  inhibition at 5 µM: < 20%
AMPK (A1/B1/G1); 50 μM compound
  inhibition at 50 µM: > 50%
ICAM-1
  effect on production of ICAM-1: suppress the production
VCAM-1
  effect on production of VCAM-1: suppress the production
IL-1α
  effect on production of IL-1α: suppress the production
IL-8
  effect on production of IL-8: suppress the production
